Target: T1, TGF R1 kinase (Homo sapiens, UniProt P36897)
T1 sequence (P36897 34-503): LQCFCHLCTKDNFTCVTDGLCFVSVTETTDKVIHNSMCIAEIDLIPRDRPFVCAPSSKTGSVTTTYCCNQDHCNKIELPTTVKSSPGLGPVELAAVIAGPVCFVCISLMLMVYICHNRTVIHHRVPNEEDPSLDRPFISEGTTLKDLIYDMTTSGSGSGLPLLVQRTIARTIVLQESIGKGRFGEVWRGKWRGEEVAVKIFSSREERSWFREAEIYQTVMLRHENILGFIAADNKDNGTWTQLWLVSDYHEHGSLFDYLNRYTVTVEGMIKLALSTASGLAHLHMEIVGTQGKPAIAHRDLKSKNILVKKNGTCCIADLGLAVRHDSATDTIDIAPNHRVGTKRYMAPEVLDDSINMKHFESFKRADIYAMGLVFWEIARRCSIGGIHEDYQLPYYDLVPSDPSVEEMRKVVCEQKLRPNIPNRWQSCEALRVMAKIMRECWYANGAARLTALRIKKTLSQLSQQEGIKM
Experiment: TGF-β inhibition assay: phosphorylation of the substrate casein by TGF R1 kinase
Assay type: biochemical
Settings: table names no assay; casein assay of Example 2: 2.5 μM ATP, 100 μM casein, 6.4 nM TGF R1 kinase
Description: Invention compounds were tested for their abilities to inhibit the phosphorylation of the substrate casein. The assay was conducted as follows: Compound dilutions and reagents were prepared fresh daily. Compounds were diluted from DMSO stock solutions to 2 times the desired assay concentration, keeping final DMSO concentration in the assay less than or equal to 1%. TGF RI kinase was diluted to 4 times the desired assay concentration in buffer and DTT. ATP and casein were diluted into 4× reaction buffer, and gamma-^32P-ATP was added at 50 μCi/mL.
The assay was performed by adding 10 μl of the enzyme to 20 μl of the compound solution. The reaction was initiated by the addition of 10 μl of the casein/ATP mix. Final assay conditions included 2.5 μM ATP, 100 μM casein, 6.4 nM TGF R1 kinase, and […] in 20 mM Tris buffer, pH 7.5. The reactions were incubated at room temperature for 45 minutes. The reactions were then stopped by transferring 23 μl of reaction mixture onto a phosphocellulose 96-well filter plate, which had been pre-wetted with 15 μl of 0.25M H3PO4 per well. After 5 minutes, the wells were washed 4× with 75 mM H3PO4 and once with 95% ethanol. The plate was dried, scintillation cocktail was added to each well, and the wells were counted in a Packard TopCount microplate scintillation counter. The ability of a compound to inhibit the enzyme was determined by comparing the counts obtained in the presence of the compound to those of the positive control (in the absence of compound) and the negative control (in the absence of enzyme).
In both of the assays referenced above, IC50 values can be determined with curve-fitting plots available with common software packages. Approximate IC50 values can be calculated using formula: IC50 (app)=A×i/(1−A) where A=fractional activity and i=total inhibitor concentration.

Structure (SMILES) | IC50 [nM]
c1ccc(-c2nc(Nc3ccncc3)c3cc[nH]c3n2)cc1 [Compound 2, 4-(4-aminopyridyl)-2-phenyl pyrollo[2,3d]pyrimidine] | 9400
Cc1noc2nc(-c3cccc(Cl)c3)nc(Nc3ccncc3)c12 [Compound 3] | 780
Cc1noc2nc(-c3cc(Br)ccc3F)nc(Nc3ccncc3)c12 [Compound 6] | 270
CCc1noc2nc(-c3cccc(Cl)c3)nc(Nc3ccncc3)c12 [Compound 7] | 5070
Cc1noc2nc(-c3cccc(I)c3)nc(Nc3ccncc3)c12 [Compound 10] | 2440
CCc1noc2nc(-c3cc(Cl)ccc3F)nc(Nc3ccncc3)c12 [Compound 11] | 1350
Cc1noc2nc(-c3ccccc3F)nc(Nc3ccncc3)c12 [Compound 12] | 1380
Cc1noc2nc(-c3cccc(Br)c3)nc(Nc3ccncc3)c12 [Compound 15] | 1020
Cc1cnccc1Nc1nc(-c2cc(Cl)ccc2F)nc2c1CCC2 [Compound 20] | 93
NC(=O)c1cnccc1Nc1nc(-c2cc(Cl)ccc2F)nc2c1CCC2 [Compound 21] | 53
Cc1cnccc1Nc1nc(-c2cc(Cl)ccc2F)nc2c1CCNC2 [Compound 23] | 1180
Cc1cnccc1Nc1nc(-c2cc(Cl)ccc2F)nc2c1CN(Cc1ccccc1)CC2 [Compound 30] | 16100
CCOC(=O)c1cnccc1Nc1nc(-c2cc(Cl)ccc2F)nc2c1CCC2 [Compound 32] | 6500
Fc1ccc(Cl)cc1-c1nc2c(c(Nc3ccncc3C(F)(F)F)n1)CCC2 [Compound 36] | 170
O=C(NC1CC1)c1cnccc1Nc1nc(-c2cc(Cl)ccc2F)nc2c1CCC2 [Compound 41] | 1350
O=C(NC1CC1)c1cnccc1Nc1nc(-c2cc(Cl)ccc2F)nc2c1CCCC2 [Compound 45, 4-[2-(5-Chloro-2-fluorophenyl)-5,6,7,8-tetrahydroquinazolin-4-ylamino]-N-cyclopropyl nicotinamide] | 683

Structure (SMILES) | IC50 [nM]
CNC(=O)c1cnccc1Nc1nc(-c2cc(Cl)ccc2F)nc2c1C(C)CC2 (stereo not shown) [Compound 47, 4-[2-(5-Chloro-2-fluorophenyl)-5-methyl-6,7-dihydro-5H-cyclopentapyrimidin-4-ylamino]-N-methyl-nicotinamide] | 14.5
CC1CCc2nc(-c3cc(Cl)ccc3F)nc(Nc3ccncc3C(=O)O)c21 (stereo not shown) [Compound 49, 4-[2-(5-Chloro-2-fluorophenyl)-5-methyl-6,7-dihydro-5H-cyclopentapyrimidin-4-ylamino]-nicotinic acid] | 85.3
O=C(O)c1cnccc1Nc1nc(-c2cc(Cl)ccc2F)nc2c1CCCC2 [Compound 50, 4-[2-(5-Chloro-2-fluorophenyl)-5,6,7,8-tetrahydroquinazolin-4-ylamino]-nicotinic acid] | 4080
C[C@H](O)CNC(=O)c1cnccc1Nc1nc(-c2cc(Cl)ccc2F)nc2c1CCC2 [Compound 52] | 238
C[C@H](O)CNC(=O)c1cnccc1Nc1nc(-c2cc(Cl)ccc2F)nc2c1CCC2 [Compound 53] | 417
CNCCNC(=O)c1cnccc1Nc1nc(-c2cc(Cl)ccc2F)nc2c1CCC2 [Compound 56] | 365
NNC(=O)c1cnccc1Nc1nc(-c2cc(Cl)ccc2F)nc2c1CCC2 [Compound 58] | 62.6
CC1(C)Cc2nc(-c3cc(Cl)ccc3F)nc(Nc3ccncc3C(F)(F)F)c2C1 [Compound 61] | 6250
CC1(C)Cc2nc(-c3cc(Cl)ccc3F)nc(Nc3ccncc3C(N)=O)c2C1 [Compound 62, 4-[2-(5-Chloro-2-fluoro-phenyl)-6,6-dimethyl-6,7-dihydro-5H-cyclopentapyrimidin-4-ylamino]-nicotinamide] | 205
CNC(=O)c1cnccc1Nc1nc(-c2cc(Cl)ccc2F)nc2c1CC(C)(C)C2 [Compound 63] | 102
CNCCNC(=O)c1cnccc1Nc1nc(-c2cc(Cl)ccc2F)nc2c1CC(C)(C)C2 [Compound 66] | 1250
CN(C)CCCNC(=O)c1cnccc1Nc1nc(-c2cc(Cl)ccc2F)nc2c1CCC2 [Compound 69] | 90.2
O=C(NCCCN1CCOCC1)c1cnccc1Nc1nc(-c2cc(Cl)ccc2F)nc2c1CCC2 [Compound 70] | 529
O=C(NCCCN1CCCC1=O)c1cnccc1Nc1nc(-c2cc(Cl)ccc2F)nc2c1CCC2 [Compound 72] | 6460
CN1CCCC1CCNC(=O)c1cnccc1Nc1nc(-c2cc(Cl)ccc2F)nc2c1CCC2 (stereo not shown) [Compound 73] | 309

The remaining molecules from weak to strong by IC50, led by results:

IC50 [nM] | Structure (SMILES)
12800 | Cc1noc2nc(-c3ccccc3Cl)nc(Nc3ccncc3)c12 [Compound 14]
8850 | COC(=O)c1cnccc1Nc1nc(-c2ccccc2)nc2c1CCC2 [Compound 67]
6270 | Cc1cnccc1Nc1nc(-c2cc(Cl)ccc2F)nc2c1CNCC2 [Compound 22]
4650 | Cc1noc2nc(-c3ccc(Cl)cc3)nc(Nc3ccncc3)c12 [Compound 17]
3100 | Cc1cnccc1Nc1nc(-c2cc(Cl)ccc2F)nc2c1COC2 [Compound 33, [2-(5-Chloro-2-fluorophenyl)-5,7-dihydrofuro[3,4-d]pyrimidin-4-yl]-(3-methyl-pyridin-4-yl)-amine]
2790 | CC1(C)Cc2nc(-c3cc(Cl)ccc3F)nc(Nc3ccncc3C(=O)NC[C@H](O)CO)c2C1 [Compound 65]
2420 | Cc1cnccc1Nc1nc(-c2cc(Cl)ccc2F)nc2c1CC(C)(C)C2 [Compound 60, [2-(5-Chloro-2-fluoro-phenyl)-6,6-dimethyl-6.7-dihydro-5H-cyclopentapyrimidin-4-yl]-(3-methyl-pyridin-4-yl)-amine]
2250 | NC(=O)c1cnccc1Nc1nc(-c2cc(Cl)ccc2F)nc2c1COC2 [Compound 34, 4-[2-(5-Chloro-2-fluoro-phenyl)-5,7-dihydro-furo[3,4-d]pyrimidin-4-ylamino]-nicotinic amide]
2240 | O=C(c1cnccc1Nc1nc(-c2cc(Cl)ccc2F)nc2c1CCC2)N1CCCC1 [Compound 37]
1810 | C[C@@H](O)CNC(=O)c1cnccc1Nc1nc(-c2cc(Cl)ccc2F)nc2c1CC(C)(C)C2 [Compound 64]
1330 | O=C(NCC1CC1)c1cnccc1Nc1nc(-c2cc(Cl)ccc2F)nc2c1CCC2 [Compound 42]
844 | O=C(NCCCn1ccnc1)c1cnccc1Nc1nc(-c2cc(Cl)ccc2F)nc2c1CCC2 [Compound 71]
639 | C[C@@H](O)CNC(=O)c1cnccc1Nc1nc(-c2cc(Cl)ccc2F)nc2c1CCC2 [Compound 55]
486 | O=C(NO)c1cnccc1Nc1nc(-c2cc(Cl)ccc2F)nc2c1CCC2 [Compound 54]
436 | C[C@H](O)CNC(=O)c1cnccc1Nc1nc(-c2cc(Cl)ccc2F)nc2c1CCCC2 [Compound 57]
289 | CNC(=O)c1cnccc1Nc1nc(-c2ccccc2)nc2c1CCC2 [Compound 68]
267 | Cc1noc2nc(-c3cc(Cl)ccc3F)nc(Nc3ccncc3)c12 [Compound 8]
262 | CCOC(=O)c1cnccc1Nc1nc(-c2cc(Cl)ccc2F)nc2c1C(C)CC2 (stereo not shown) [Compound 48, 4-[2-(5-Chloro-2-fluoro-phenyl)-5-methyl-6,7-dihydro-5H-cyclopentapyrimidin-4-ylamino]-nicotinic acid ethyl ester]
252 | Cc1cnccc1Nc1nc(-c2cc(Cl)ccc2F)nc2c1CCCC2 [Compound 38, [2-(5-Chloro-2-fluorophenyl)-5,6,7,8-tetrahydroquinazolin-4-yl]-(3-methylpyridin-4-yl)-amine]
148 | CNC(=O)c1cnccc1Nc1nc(-c2cc(Cl)ccc2F)nc2c1OCC2 [Compound 44, 4-[2-(5-Chloro-2-fluorophenyl)-6,7-dihydrofuro[3,2-d]pyrimidin-4-ylamino]-N-methyl nicotinamide]
104 | Cc1cnccc1Nc1nc(-c2cc(Cl)ccc2F)nc2c1C(C)CC2 (stereo not shown) [Compound 43, [2-(5-Chloro-2-fluorophenyl)-5-methyl-6,7-dihydro-5H-cyclopentapyrimidin-4-yl]-(3-methyl-pyridin-4-yl)-amine]
77.9 | CCN(CC)CCNC(=O)c1cnccc1Nc1nc(-c2cc(Cl)ccc2F)nc2c1CCCC2 [Compound 59]
50.1 | CNC(=O)c1cnccc1Nc1nc(-c2cc(Cl)ccc2F)nc2c1CCCC2 [Compound 40]
13 | CC1CCc2nc(-c3cc(Cl)ccc3F)nc(Nc3ccncc3C(N)=O)c21 (stereo not shown) [Compound 46]
